Patent publication US20240360157A1, “TYK2 INHIBITORS” (BIOGEN MA INC., priority 2021, published 2024)

Columns and labels:
Assay type in all cases: biochemical
[1] = molecular target: human TYK2 catalytic kinase (JH1) domain (Homo sapiens (Human), UniProt P29597); test: ADP-Glo Kinase Assay, recombinant TYK2 catalytic kinase (JH1) domain; conditions: recombinant JH1 domain 2 nM, 10 μM ATP, JAK3-974 peptide, mean, read-out: TYK2 biochem IC50 (nM) Mean
Summary of the method: (§1)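 Kinase 4 nM JAK1 / 0.2 nM JAK2 / 0.3 nM JAK3 / 2 nM TYK2; 50 μM peptide; 100 min. Unused ATP depleted, ADP→ATP, luciferase luminescence. 11-pt 3-fold series from 10 or 1 μM; normalized, 4PL fit → IC50.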

[2] = molecular target: human JAK1 catalytic kinase (JH1) domain (Homo sapiens (Human), UniProt P23458); test: ADP-Glo Kinase Assay, recombinant JAK1 catalytic kinase (JH1) domain; conditions: recombinant JH1 domain 4 nM, 35 μM ATP, JAK3-342 peptide, mean, read-out: JAK1 biochem IC50 (nM) Mean
Summary of the method: as §1

[3] = molecular target: human JAK2 catalytic kinase (JH1) domain (Homo sapiens (Human), UniProt O60674); test: ADP-Glo Kinase Assay, recombinant JAK2 catalytic kinase (JH1) domain; conditions: recombinant JH1 domain 0.2 nM, 15 μM ATP, JAK3-974 peptide, mean, read-out: JAK2 biochem IC50 (nM) Mean
Summary of the method: as §1

[4] = molecular target: human JAK3 catalytic kinase (JH1) domain (Homo sapiens (Human), UniProt P52333); test: ADP-Glo Kinase Assay, recombinant JAK3 catalytic kinase (JH1) domain; conditions: recombinant JH1 domain 0.3 nM, 4 μM ATP, JAK3-974 peptide, mean, read-out: JAK3 biochem IC50 (nM) Mean
Summary of the method: as §1

Sequence of human JAK1 catalytic kinase (JH1) domain (P23458 875-1153): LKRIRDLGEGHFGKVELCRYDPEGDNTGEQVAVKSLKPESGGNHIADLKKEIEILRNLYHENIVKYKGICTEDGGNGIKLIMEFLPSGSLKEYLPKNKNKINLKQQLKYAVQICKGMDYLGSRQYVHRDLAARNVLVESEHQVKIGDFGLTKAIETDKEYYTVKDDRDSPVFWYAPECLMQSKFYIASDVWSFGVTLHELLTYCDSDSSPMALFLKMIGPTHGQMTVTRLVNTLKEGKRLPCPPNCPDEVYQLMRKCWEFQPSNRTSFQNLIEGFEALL
Sequence of human JAK2 catalytic kinase (JH1) domain (O60674 849-1124): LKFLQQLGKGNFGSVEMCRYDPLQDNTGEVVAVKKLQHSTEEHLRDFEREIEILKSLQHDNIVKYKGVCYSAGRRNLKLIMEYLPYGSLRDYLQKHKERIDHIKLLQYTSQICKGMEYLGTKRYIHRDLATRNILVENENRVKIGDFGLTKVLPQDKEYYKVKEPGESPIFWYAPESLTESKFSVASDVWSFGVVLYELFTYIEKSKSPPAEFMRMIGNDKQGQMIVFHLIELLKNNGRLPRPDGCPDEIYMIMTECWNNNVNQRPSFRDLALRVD
Sequence of human JAK3 catalytic kinase (JH1) domain (P52333 822-1111): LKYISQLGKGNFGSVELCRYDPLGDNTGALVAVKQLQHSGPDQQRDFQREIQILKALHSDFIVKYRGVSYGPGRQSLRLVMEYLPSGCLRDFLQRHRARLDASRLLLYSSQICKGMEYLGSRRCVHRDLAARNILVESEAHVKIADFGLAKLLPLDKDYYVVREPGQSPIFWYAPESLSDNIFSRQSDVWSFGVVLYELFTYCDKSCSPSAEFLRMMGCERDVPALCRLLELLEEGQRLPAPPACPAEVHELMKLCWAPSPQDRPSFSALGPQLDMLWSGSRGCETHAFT
Sequence of human TYK2 catalytic kinase (JH1) domain (P29597 897-1176): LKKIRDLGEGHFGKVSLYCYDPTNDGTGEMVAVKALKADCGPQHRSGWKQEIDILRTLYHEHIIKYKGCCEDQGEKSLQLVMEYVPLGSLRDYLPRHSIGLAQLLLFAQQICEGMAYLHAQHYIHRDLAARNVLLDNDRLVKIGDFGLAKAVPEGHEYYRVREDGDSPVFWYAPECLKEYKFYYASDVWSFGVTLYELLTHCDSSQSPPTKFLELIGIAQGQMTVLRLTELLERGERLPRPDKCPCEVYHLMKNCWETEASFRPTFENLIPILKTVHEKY

SMILES | IC50 [1] [nM] | IC50 [2] [nM] | IC50 [3] [nM] | IC50 [4] [nM]
Cn1cc(-c2cc3c(N4CC5CCC(C4)N5C(=O)[C@@H]4C[C@H]4F)ncnn3c2)cn1 [Example 82, ((1S,2R)-2-fluorocyclopropyl)(3-(6-(1-methyl-1H-pyrazol-4-yl)pyrrolo[2,1-f][1,2,4]triazin-4-yl)-3,8-diazabicyclo[3.2.1]octan-8-yl)methanone] | 400 | 1650 | 8860 | 3060
Cn1cc(-c2cc3c(N4CC5CCC(C4)N5C(=O)[C@@H]4CC4(F)F)ncnn3c2)cn1 [Example 83, ((S)-2,2-difluorocyclopropyl)(3-(6-(1-methyl-1H-pyrazol-4-yl)pyrrolo[2,1-f][1,2,4]triazin-4-yl)-3,8-diazabicyclo[3.2.1]octan-8-yl)methanone] | 333 | 652 | 5730 | 1640
Cn1cc(-c2cc3c(N4CC5CCC(C4)N5C(=O)[C@H]4CC4(F)F)ncnn3c2)cn1 [Example 84, ((R)-2,2-difluorocyclopropyl)(3-(6-(1-methyl-1H-pyrazol-4-yl)pyrrolo[2,1-f][1,2,4]triazin-4-yl)-3,8-diazabicyclo[3.2.1]octan-8-yl)methanone] | 55 | 1800 | 1220 | 6890
O=C(N1C2CCC1CN(c1ncnn3cc(-c4cnn(C(F)F)c4)cc13)C2)C(F)(F)F [Example 86, 1-(3-(6-(1-(difluoromethyl)-1H-pyrazol-4-yl)pyrrolo[2,1-f][1,2,4]triazin-4-yl)-3,8-diazabicyclo[3.2.1]octan-8-yl)-2,2,2-trifluoroethan-1-one] | 334 | 1030 | 6080 | 5090
Cn1cc(-c2cc3c(N4CC5CCC(C4)N5C(=O)C(F)(F)F)ncnn3c2)cn1 [Example 87, 2,2,2-trifluoro-1-(3-(6-(1-methyl-1H-pyrazol-4-yl)pyrrolo[2,1-f][1,2,4]triazin-4-yl)-3,8-diazabicyclo[3.2.1]octan-8-yl)ethan-1-one] | 266 | 1200 | 4870 | 2550
COc1cc(-c2cc3c(N4CC5CCC(C4)N5C(=O)[C@@H]4C[C@H]4F)ccnn3c2)ccn1 [Example 88, ((1S,2R)-2-fluorocyclopropyl)(3-(6-(2-methoxypyridin-4-yl)pyrrolo[1,2-b]pyridazin-4-yl)-3,8-diazabicyclo[3.2.1]octan-8-yl)methanone] | 1.9 | 23 | 46 | 604
COc1cc(-c2cc3c(N4CC5CCC(C4)N5C(=O)[C@@H]4C[C@H]4F)ncnn3c2)ccn1 [Example 89, ((1S,2R)-2-fluorocyclopropyl)(3-(6-(2-methoxypyridin-4-yl)pyrrolo[2,1-f][1,2,4]triazin-4-yl)-3,8-diazabicyclo[3.2.1]octan-8-yl)methanone] | 28.2 | 236 | 856 | 4240
O=C([C@@H]1C[C@H]1F)N1C2CCC1CN(c1ncnn3cc(-c4ccnnc4)cc13)C2 [Example 90, ((1S,2R)-2-fluorocyclopropyl)(3-(6-(pyridazin-4-yl)pyrrolo[2,1-f][1,2,4]triazin-4-yl)-3,8-diazabicyclo[3.2.1]octan-8-yl)methanone] | 124 | 1120 | 3060 | 10000
Cc1cc(-c2cc3c(N4CC5CCC(C4)N5C(=O)[C@@H]4C[C@H]4F)ncnn3c2)ccn1 [Example 91, ((1S,2R)-2-fluorocyclopropyl)(3-(6-(2-methylpyridin-4-yl)pyrrolo[2,1-f][1,2,4]triazin-4-yl)-3,8-diazabicyclo[3.2.1]octan-8-yl)methanone] | 21.8 | 316 | 624 | 4500
Cc1ccc(-c2cc3c(N4CC5CCC(C4)N5C(=O)[C@@H]4C[C@H]4F)ncnn3c2)cn1 [Example 92, ((1S,2R)-2-fluorocyclopropyl)(3-(6-(6-methylpyridin-3-yl)pyrrolo[2,1-f][1,2,4]triazin-4-yl)-3,8-diazabicyclo[3.2.1]octan-8-yl)methanone] | 42.2 | 744 | 1160 | 4820
O=C([C@@H]1C[C@H]1F)N1C2CCC1CN(c1ncnn3cc(-c4ccnc(C(F)F)c4)cc13)C2 [Example 93, (3-(6-(2-(difluoromethyl)pyridin-4-yl)pyrrolo[2,1-f][1,2,4]triazin-4-yl)-3,8-diazabicyclo[3.2.1]octan-8-yl)((1S,2R)-2-fluorocyclopropyl)methanone] | 29.2 | 386 | 591 | 3300
CNc1cc(-c2cc3c(N4CC5CCC(C4)N5C(=O)[C@@H]4C[C@H]4F)ncnn3c2)ccn1 [Example 94, ((1S,2R)-2-fluorocyclopropyl)(3-(6-(2-(methylamino)pyridin-4-yl)pyrrolo[2,1-f][1,2,4]triazin-4-yl)-3,8-diazabicyclo[3.2.1]octan-8-yl)methanone] | 18.6 | 230 | 590 | 2940
N#Cc1cc(-c2cc3c(N4CC5CCC(C4)N5C(=O)[C@@H]4C[C@H]4F)ncnn3c2)ccn1 [Example 95, 4-(4-(8-((1S,2R)-2-fluorocyclopropane-1-carbonyl)-3,8-diazabicyclo[3.2.1]octan-3-yl)pyrrolo[2,1-f][1,2,4]triazin-6-yl)picolinonitrile] | 45.5 | 741 | 942 | 7940
Cn1cc(-c2cc3c(N4CC5CCC(C4)N5C(=O)[C@@H]4C[C@H]4F)ncnn3c2)c(F)n1 [Example 96, (3-(6-(3-fluoro-1-methyl-1H-pyrazol-4-yl)pyrrolo[2,1-f][1,2,4]triazin-4-yl)-3,8-diazabicyclo[3.2.1]octan-8-yl)((1S,2R)-2-fluorocyclopropyl)methanone] | 13.7 | 718 | 422 | 3270
Cn1ncc(-c2cc3c(N4CC5CCC(C4)N5C(=O)[C@@H]4C[C@H]4F)ncnn3c2)c1F [Example 97, (3-(6-(5-fluoro-1-methyl-1H-pyrazol-4-yl)pyrrolo[2,1-f][1,2,4]triazin-4-yl)-3,8-diazabicyclo[3.2.1]octan-8-yl)((1S,2R)-2-fluorocyclopropyl)methanone] | 76.8 | 1320 | 1380 | 4040
COc1nn(C)cc1-c1cc2c(N3CC4CCC(C3)N4C(=O)[C@@H]3C[C@H]3F)ncnn2c1 [Example 98, ((1S,2R)-2-fluorocyclopropyl)(3-(6-(3-methoxy-1-methyl-1H-pyrazol-4-yl)pyrrolo[2,1-f][1,2,4]triazin-4-yl)-3,8-diazabicyclo[3.2.1]octan-8-yl)methanone] | 9.8 | 672 | 216 | 1640
CNc1cc(-c2cc3c(N4CC5CCC(C4)N5C(=O)[C@@H]4C[C@H]4F)ccnn3c2)ccn1 [Example 99, ((1S,2R)-2-fluorocyclopropyl)(3-(6-(2-(methylamino)pyridin-4-yl)pyrrolo[1,2-b]pyridazin-4-yl)-3,8-diazabicyclo[3.2.1]octan-8-yl)methanone] | 0.7 | 10 | 18 | 211
Cc1cc(-c2cc3c(N4CC5CCC(C4)N5C(=O)[C@@H]4C[C@H]4F)ccnn3c2)ccn1 [Example 100, ((1S,2R)-2-fluorocyclopropyl)(3-(6-(2-methylpyridin-4-yl)pyrrolo[1,2-b]pyridazin-4-yl)-3,8-diazabicyclo[3.2.1]octan-8-yl)methanone] | 2.5 | 26 | 43 | 756
O=C([C@@H]1C[C@H]1F)N1C2CCC1CN(c1ccnn3cc(-c4ccnc(C(F)F)c4)cc13)C2 [Example 101, (3-(6-(2-(difluoromethyl)pyridin-4-yl)pyrrolo[1,2-b]pyridazin-4-yl)-3,8-diazabicyclo[3.2.1]octan-8-yl)((1S,2R)-2-fluorocyclopropyl)methanone] | 1.4 | 22 | 27 | 541
N#Cc1ccc(-c2cc3c(N4CC5CCC(C4)N5C(=O)[C@@H]4C[C@H]4F)ccnn3c2)cn1 [Example 103, 5-(4-(8-((1S,2R)-2-fluorocyclopropane-1-carbonyl)-3,8-diazabicyclo[3.2.1]octan-3-yl)pyrrolo[1,2-b]pyridazin-6-yl)picolinonitrile] | 5.2 | 77 | 60 | 913
N#Cc1cc(-c2cc3c(N4CC5CCC(C4)N5C(=O)[C@@H]4C[C@H]4F)ccnn3c2)ccn1 [Example 104, 4-(4-(8-((1S,2R)-2-fluorocyclopropane-1-carbonyl)-3,8-diazabicyclo[3.2.1]octan-3-yl)pyrrolo[1,2-b]pyridazin-6-yl)picolinonitrile] | 3.4 | 46 | 47 | 886
COc1cc(-c2cc3c(N4CC5CCC(C4)N5C(=O)[C@@H]4C[C@H]4F)ccnn3c2)ncn1 [Example 105, ((1S,2R)-2-fluorocyclopropyl)(3-(6-(6-methoxypyrimidin-4-yl)pyrrolo[1,2-b]pyridazin-4-yl)-3,8-diazabicyclo[3.2.1]octan-8-yl)methanone] | 28.6 | 356 | 190 | 6900
